Active and inactive are the calls of the source.
How the values were obtained:
[1] = biological target: Latent membrane protein 1 (Human herpesvirus 4 (strain B95-8), UniProt P03230); assay: LMP1 TES1 pathway selectivity over dsRED control – imaging, HEK293T, dual-color eGFP/dsRED, cherry-picks, selectivity assay for LMP1 NF-kB inhibitor project, dose response (AID 588398); type: functional, cell-based
[2] = biological target: T1, High affinity choline transporter 1 (Homo sapiens, UniProt Q9GZV3); assay: human choline transporter potentiators, potency – cell-based, 10-point CRC, membrane potential dye, dose response (AID 602376); type: functional
T1 sequence (Q9GZV3 whole entry): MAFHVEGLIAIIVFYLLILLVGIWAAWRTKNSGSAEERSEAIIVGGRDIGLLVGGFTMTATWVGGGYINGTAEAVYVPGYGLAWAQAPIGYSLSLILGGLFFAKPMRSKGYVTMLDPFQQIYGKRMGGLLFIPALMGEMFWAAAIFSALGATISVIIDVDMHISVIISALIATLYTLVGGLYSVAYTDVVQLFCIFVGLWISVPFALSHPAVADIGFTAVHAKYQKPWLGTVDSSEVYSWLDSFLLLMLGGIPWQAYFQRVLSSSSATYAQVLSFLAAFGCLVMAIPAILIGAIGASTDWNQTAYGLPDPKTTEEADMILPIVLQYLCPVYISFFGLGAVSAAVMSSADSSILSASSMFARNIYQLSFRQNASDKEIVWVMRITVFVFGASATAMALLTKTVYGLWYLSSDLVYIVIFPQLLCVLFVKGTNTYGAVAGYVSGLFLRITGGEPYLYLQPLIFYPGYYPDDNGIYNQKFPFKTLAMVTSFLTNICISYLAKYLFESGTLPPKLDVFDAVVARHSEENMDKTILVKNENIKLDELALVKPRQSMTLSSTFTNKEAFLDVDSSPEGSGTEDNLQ

H9c2 = assay: cells; type: functional, cell-based; conditions: Rattus norvegicus, H9c2, Myocardium
[3] = biological target: T2, Sentrin-specific protease 7 (Homo sapiens, UniProt Q9BQF6); assay: inhibition of human SENP7 cleavage activity – biochemical, luminescence, set 2, SAR follow-up (AID 588600); type: functional
T2 sequence (Q9BQF6 whole entry): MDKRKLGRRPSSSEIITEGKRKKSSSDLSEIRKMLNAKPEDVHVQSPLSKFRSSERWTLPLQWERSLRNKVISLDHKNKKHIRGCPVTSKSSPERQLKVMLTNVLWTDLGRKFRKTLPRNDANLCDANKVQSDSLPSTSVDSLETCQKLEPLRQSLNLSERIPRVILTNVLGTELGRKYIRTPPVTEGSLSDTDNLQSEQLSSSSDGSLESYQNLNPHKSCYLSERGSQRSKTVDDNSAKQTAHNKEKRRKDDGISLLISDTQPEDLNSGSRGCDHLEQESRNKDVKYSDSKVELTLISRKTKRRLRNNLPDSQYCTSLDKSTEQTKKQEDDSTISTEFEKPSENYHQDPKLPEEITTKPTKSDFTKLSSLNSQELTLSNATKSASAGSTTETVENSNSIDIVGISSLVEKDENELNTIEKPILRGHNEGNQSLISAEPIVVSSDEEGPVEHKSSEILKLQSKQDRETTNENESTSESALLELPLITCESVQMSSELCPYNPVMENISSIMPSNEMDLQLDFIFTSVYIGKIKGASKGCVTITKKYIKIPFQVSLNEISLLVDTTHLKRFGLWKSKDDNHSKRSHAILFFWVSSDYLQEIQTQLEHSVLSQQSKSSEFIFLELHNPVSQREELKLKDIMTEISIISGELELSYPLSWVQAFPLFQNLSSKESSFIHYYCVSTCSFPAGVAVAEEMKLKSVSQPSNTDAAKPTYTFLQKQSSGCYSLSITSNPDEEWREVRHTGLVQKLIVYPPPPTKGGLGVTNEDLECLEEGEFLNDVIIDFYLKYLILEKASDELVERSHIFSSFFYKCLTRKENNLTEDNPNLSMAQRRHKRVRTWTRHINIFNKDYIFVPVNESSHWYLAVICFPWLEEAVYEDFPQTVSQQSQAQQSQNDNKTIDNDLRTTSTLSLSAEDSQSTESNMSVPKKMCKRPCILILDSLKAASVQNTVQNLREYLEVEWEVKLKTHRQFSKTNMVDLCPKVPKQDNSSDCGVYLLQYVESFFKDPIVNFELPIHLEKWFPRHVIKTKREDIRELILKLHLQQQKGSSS

[4] = biological target: T3, Sentrin-specific protease 8 (Homo sapiens, UniProt Q96LD8); assay: inhibition of human SENP8 cleavage activity – biochemical, luminescence, SAR follow-up (AID 504501); type: functional
T3 sequence (Q96LD8 whole entry): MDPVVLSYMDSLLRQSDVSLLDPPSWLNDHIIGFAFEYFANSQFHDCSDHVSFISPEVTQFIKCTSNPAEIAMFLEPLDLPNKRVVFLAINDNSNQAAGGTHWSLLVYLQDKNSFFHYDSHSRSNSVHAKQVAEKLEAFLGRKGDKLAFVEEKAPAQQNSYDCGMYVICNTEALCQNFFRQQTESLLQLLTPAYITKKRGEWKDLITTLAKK

[5] = biological target: T3, Sentrin-specific protease 8; assay: inhibition of sentrin protease 8 – biochemical, luminescence, set 2, SAR follow-up (AID 588601); type: functional
[6] = biological target: T4, Sentrin-specific protease 6 (Homo sapiens, UniProt Q9GZR1); assay: inhibition of human SENP6 catalytic domain – biochemical, luminescence, set 2, SAR follow-up (AID 588598); type: functional
T4 sequence (Q9GZR1 whole entry): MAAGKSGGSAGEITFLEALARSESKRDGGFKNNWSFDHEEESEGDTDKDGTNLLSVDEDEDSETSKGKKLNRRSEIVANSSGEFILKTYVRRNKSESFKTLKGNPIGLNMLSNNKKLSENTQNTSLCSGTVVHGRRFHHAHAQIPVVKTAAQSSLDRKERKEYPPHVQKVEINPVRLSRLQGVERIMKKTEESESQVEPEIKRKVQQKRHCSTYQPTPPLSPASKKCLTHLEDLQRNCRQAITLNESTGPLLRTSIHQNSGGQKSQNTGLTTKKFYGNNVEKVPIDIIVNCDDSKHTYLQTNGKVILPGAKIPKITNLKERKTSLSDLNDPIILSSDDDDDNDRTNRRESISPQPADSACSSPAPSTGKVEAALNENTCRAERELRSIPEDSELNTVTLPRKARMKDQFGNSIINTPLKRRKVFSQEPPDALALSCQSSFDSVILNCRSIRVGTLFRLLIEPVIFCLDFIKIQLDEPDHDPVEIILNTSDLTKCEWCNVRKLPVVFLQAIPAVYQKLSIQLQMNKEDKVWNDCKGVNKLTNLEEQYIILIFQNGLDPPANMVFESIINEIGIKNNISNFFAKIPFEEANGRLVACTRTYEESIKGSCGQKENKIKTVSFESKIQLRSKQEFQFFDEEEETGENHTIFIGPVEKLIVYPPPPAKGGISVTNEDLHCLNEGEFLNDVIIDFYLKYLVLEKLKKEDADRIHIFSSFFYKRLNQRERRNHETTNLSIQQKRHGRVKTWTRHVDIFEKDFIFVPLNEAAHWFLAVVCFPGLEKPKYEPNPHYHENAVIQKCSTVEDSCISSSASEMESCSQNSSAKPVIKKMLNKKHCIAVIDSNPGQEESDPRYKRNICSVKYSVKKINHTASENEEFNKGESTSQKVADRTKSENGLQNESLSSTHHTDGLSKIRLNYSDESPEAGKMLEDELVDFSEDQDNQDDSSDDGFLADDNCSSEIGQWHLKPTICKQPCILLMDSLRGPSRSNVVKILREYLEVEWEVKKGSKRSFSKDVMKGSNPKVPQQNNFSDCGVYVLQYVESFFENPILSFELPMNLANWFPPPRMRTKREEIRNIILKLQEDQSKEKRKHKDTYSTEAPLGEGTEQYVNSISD

Caspase-3 [7] = biological target: T5, Caspase-3 (Homo sapiens, UniProt P42574); assay: inhibition of recombinant caspase-3 activity – biochemical, luminescence, set 2, selectivity assay for SENP protease inhibitor project, SAR follow-up (AID 588599); type: functional
T5 sequence (P42574 whole entry): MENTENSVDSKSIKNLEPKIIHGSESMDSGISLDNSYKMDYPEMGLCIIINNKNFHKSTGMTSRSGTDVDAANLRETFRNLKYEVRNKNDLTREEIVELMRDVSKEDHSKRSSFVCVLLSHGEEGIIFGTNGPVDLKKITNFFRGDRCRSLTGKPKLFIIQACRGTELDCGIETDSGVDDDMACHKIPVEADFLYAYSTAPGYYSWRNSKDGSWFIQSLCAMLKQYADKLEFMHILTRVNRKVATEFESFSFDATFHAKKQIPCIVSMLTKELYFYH

Caspase-3 [8] = biological target: T5, Caspase-3; assay: SAR Analysis of small molecule inhibitors of Sentrin-specific proteases (SENPs) using a Caspase-3 Selectivity assay. [Related pubchem assays (depositor defined):AID2540, AID2599, AID434973, AID489001]; type: functional
[9] = biological target: T4, Sentrin-specific protease 6; assay: SAR Analysis of small molecule inhibitors of Sentrin-specific protease 6 (SENP6) using a Luminescent assay. [Related pubchem assays (depositor defined):AID2582, AID2599]; type: functional
[10] = biological target: T2, Sentrin-specific protease 7; assay: inhibition of human SENP7 cleavage activity – biochemical, luminescence, SAR follow-up (AID 504497); type: functional
[11] = NIH-3T3 fibroblast cytotoxicity, dose response, cytotoxicity control, cell-based, fluorescence, Alamar Blue, secondary assay (AID 2327); type: functional;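 also: NIH-3T3 mouse fibroblasts cultured with fluconazole at 8 µg/mL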
[12] = fluconazole-exposed Candida albicans growth modulators – fluorescence, retest, confirmation (AID 2467); type: functional, cell-based
[13] = biological target: T6, Hepatocyte nuclear factor 4-alpha (Homo sapiens, UniProt P41235); type: functional, cell-based;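 also: biochemical luminescence-based dose-response counterscreen measuring inhibition of HNF4 dimerization, run alongside a screen for blockers of ABHD5–perilipin-5 interaction; split luciferase complementation of HNF4 fusion proteins in cell lysate measuring dimerization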
T6 sequence (P41235 whole entry): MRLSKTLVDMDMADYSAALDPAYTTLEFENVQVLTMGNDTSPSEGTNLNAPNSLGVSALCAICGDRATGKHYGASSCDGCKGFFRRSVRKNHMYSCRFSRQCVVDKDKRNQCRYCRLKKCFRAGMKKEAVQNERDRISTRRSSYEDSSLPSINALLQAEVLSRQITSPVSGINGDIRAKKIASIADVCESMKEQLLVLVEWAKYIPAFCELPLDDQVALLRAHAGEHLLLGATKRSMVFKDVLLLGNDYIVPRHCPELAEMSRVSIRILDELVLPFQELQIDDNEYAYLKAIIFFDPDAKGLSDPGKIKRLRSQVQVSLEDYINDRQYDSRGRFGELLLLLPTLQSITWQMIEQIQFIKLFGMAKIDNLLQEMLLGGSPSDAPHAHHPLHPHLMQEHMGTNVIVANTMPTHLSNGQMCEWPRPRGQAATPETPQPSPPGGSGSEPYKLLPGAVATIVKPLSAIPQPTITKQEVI

[14] = biological target: Protein disulfide-isomerase (Homo sapiens, UniProt P07237); assay: inhibition of PDI-driven insulin aggregation – biochemical, turbidity, absorbance, cherry-picked samples, dose response (AID 602350); type: functional
INS1 [15] = assay: suppression of NO production in INS-1E cells – cell-based, Griess absorbance, dry powder, set 2, dose response (AID 488868); type: functional; conditions: Rattus norvegicus
[16] = suppression of NO production in INS-1E cells – cell-based, Griess absorbance, dry powder, set 3, dose response (AID 488870); type: functional; conditions: Rattus norvegicus
INS1 [17] = assay: cellular ATP toxicity in rat beta cells – cell-based, CellTiter-Glo luminescence, INS-1E, dry powder, cytotoxicity control for beta-cell cytokine protection project, dose response (AID 488864); type: functional
CAAX prenyl protease 2 [18] = biological target: T7, CAAX prenyl protease 2 (Saccharomyces cerevisiae S288c, UniProt Q03530); assay: inhibition of Rce1p peptide cleavage – biochemical, plate reader, dry powder retest, dose response (AID 588851)
T7 sequence (Q03530 whole entry): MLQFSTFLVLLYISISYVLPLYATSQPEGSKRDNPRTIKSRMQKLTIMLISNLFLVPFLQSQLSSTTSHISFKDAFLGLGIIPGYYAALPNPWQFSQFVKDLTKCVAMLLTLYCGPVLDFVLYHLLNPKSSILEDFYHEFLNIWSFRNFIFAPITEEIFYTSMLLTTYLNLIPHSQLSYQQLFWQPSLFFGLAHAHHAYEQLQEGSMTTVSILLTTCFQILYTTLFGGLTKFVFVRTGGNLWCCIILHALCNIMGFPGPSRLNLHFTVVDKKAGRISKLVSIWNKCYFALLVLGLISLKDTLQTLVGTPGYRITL

[19] = toxicity toward cultured mammalian cells – cell-based, plate reader, cherry-pick samples, cytotoxicity control, dose response (AID 504397); type: functional
CAAX prenyl protease 2 [20] = biological target: T7, CAAX prenyl protease 2; type: biochemical
Ephrin type-A receptor 2 = Ephrin type-A receptor 2 (Homo sapiens, UniProt P29317); type: functional;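 also: EPHA2 tested as one member of a kinome-wide kinase panel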
[21] = biological target: Glycogen synthase kinase-3 alpha (Homo sapiens, UniProt P49840); type: functional;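 also: GSK3A result taken from a broad kinome-wide kinase panel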
Glycogen synthase kinase-3 alpha, sequence (P49840 whole entry): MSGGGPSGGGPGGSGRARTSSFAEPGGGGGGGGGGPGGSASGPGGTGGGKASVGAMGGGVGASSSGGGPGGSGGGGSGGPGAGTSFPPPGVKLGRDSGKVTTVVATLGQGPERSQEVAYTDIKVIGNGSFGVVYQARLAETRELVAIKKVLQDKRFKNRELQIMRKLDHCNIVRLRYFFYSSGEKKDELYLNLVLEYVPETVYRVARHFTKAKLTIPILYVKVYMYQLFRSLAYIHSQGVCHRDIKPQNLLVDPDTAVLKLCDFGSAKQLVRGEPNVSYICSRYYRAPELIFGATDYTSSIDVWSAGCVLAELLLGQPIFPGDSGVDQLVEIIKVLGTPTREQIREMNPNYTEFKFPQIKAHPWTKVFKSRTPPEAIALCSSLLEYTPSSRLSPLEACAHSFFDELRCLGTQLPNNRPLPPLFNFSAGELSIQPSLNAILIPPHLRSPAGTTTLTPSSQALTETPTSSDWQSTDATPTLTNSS

Latent membrane protein 1, sequence (P03230 whole entry): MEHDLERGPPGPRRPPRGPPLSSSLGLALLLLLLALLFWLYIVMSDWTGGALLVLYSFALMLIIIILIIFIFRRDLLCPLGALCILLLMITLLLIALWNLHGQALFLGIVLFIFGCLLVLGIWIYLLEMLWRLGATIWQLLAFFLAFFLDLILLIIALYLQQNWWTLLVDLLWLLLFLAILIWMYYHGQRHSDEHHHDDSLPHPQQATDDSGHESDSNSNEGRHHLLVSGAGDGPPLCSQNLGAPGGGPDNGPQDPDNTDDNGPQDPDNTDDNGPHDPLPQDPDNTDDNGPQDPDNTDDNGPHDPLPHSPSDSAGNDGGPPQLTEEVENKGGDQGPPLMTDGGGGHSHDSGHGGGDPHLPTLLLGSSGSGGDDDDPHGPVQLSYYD
Protein disulfide-isomerase, sequence (P07237 whole entry): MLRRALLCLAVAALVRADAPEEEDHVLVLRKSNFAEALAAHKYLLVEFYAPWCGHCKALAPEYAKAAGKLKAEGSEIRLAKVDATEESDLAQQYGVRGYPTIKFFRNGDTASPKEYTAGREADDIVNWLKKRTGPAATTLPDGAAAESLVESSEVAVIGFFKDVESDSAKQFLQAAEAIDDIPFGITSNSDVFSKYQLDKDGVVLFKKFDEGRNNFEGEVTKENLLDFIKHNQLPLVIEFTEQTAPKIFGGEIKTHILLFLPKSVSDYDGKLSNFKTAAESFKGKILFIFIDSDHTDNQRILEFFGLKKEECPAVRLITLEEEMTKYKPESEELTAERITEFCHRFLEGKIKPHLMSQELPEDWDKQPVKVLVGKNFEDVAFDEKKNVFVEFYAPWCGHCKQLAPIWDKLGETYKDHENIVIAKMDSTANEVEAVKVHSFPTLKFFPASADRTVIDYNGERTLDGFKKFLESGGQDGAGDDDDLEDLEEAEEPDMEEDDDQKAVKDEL
Ephrin type-A receptor 2, sequence (P29317 whole entry): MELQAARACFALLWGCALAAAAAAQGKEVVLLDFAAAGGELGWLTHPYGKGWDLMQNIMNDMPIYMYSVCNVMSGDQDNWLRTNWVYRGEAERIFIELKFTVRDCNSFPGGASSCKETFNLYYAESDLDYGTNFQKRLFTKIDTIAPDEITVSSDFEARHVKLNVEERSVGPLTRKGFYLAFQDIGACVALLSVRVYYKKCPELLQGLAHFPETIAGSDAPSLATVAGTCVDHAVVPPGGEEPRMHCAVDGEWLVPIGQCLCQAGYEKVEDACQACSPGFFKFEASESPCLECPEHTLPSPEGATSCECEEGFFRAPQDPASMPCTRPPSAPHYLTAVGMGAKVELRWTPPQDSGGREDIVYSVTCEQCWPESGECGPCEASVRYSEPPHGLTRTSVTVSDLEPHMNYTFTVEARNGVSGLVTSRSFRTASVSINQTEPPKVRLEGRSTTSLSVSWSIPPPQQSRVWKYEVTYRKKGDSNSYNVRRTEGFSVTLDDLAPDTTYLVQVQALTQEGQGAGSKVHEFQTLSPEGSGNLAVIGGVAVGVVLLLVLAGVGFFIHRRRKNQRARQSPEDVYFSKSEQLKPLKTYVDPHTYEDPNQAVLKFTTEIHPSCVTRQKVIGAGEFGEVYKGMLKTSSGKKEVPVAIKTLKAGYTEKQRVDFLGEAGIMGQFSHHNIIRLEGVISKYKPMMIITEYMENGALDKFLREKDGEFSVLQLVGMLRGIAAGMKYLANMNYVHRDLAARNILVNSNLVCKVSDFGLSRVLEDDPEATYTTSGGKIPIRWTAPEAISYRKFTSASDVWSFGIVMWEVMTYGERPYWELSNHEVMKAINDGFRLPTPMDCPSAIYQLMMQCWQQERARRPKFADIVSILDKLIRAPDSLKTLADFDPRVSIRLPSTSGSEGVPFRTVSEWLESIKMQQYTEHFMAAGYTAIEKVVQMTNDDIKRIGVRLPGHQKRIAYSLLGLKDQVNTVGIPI

## O=C(Nc1ccccn1)NC1CCCCC1
[1]
  AC50: 66.5 µM (active)

## COC(=O)c1ccc(C(NC(=O)OCc2ccccc2)/C(C)=C/[C@@H](C)C(=O)NCc2ccc(OC)c(OC)c2)cc1 (stereo partly drawn)
[2]
  EC50: 12.3 µM (active)
H9c2
  IC50: 10.6 µM (active)

## COc1ccc(/C=C/c2noc(-c3ccccc3O)n2)cc1
[3]
  IC50: 1.35 µM (active)
[4]
  IC50: 1.3 µM (active)
[5]
  IC50: 1.19 µM (active)
[6]
  IC50: 1.26 µM (active)
Caspase-3 [7]
  IC50: 1.17 µM (active)
Caspase-3 [8]
  IC50: 1.4 µM (active)
[9]
  IC50: 1.4 µM (active)
[10]
  IC50: 1.1 µM (active)

## O=C(/C=C/c1ccc(NC(=O)c2ccccc2-c2ccccc2C(=O)O)cc1)c1ccccc1
[11]
  EC50: > 150 µM (inactive)
[12]
  EC50: > 38 µM (not active)
[13]
  IC50: 8.66 µM (active)
[14]
  AC50: 11.4 µM (active)

## C[C@@H]1CN([C@@H](C)CO)C(=O)c2cccc(NC(=O)Nc3cccc4ccccc34)c2O[C@H]1CN(C)S(=O)(=O)c1ccc(OC(F)(F)F)cc1
INS1 [15]
  AC50: 16.5 µM (active)
[16]
  AC50: 20.3 µM (active)
INS1 [17]
  AC50: 18.5 µM (active)

## Cc1ccc(SCc2c(C(=O)N/N=C/c3ccccc3)nnn2-c2nonc2N)cc1
CAAX prenyl protease 2 [18]
  AC50: 3.7 µM (active)
[19]
  AC50: 73 µM (active)
CAAX prenyl protease 2 [20]
  AC50: 0.141 µM (active)

## Cc1ccc(NC(=O)c2cnn3c(-c4ccccc4)ccnc23)cc1C
Ephrin type-A receptor 2
  Ki: 2 µM (active)
[21]
  Ki: 7.94 µM (active)
